Reference: ChEMBL document CHEMBL6092158, “Green synthesis of neuroprotective spirocyclic chalcone derivatives and their role in protecting against traumatic optic nerve injury” (Eur J Med Chem, 2024)
Active and inactive are the calls of the source. The rule behind the calls is not given here.

How the values were obtained:
R28 [1] = experiment: Cytoprotective activity against glutamate-induced cytotoxicity in rat R28 cells assessed as increase in cell viability at 10 uM incubated for 24 hrs in presence of glutamate by MTT assay; format: functional, cell-based
R28 [2] = experiment: Cytoprotective activity against hydrogen peroxide-induced cytotoxicity in rat R28 cells assessed as increase in cell viability at 10 uM preincubated for 24 hrs followed by incubation with H2O2 for 24 hrs by MTT assay; format: functional, cell-based

SMILES	Activity (R28 [1])	Activity (R28 [2])
CN1C[C@H](c2ccc(O)c(O)c2)[C@@H](C(=O)c2ccc(Br)cc2F)[C@]12C(=O)Nc1ccccc12	Active	Active
COc1cc(C(=O)[C@@H]2[C@@H](c3ccc(O)c(O)c3)CN(C)[C@@]23C(=O)Nc2ccccc23)cc(OC)c1OC	Active	Active
COc1ccc(C(=O)[C@@H]2[C@@H](c3ccc(O)c(O)c3)CN(C)[C@@]23C(=O)Nc2ccccc23)cc1	Active	Active
CN1C[C@H](c2ccc(O)c(O)c2)[C@@H](C(=O)c2cccc(Cl)c2)[C@]12C(=O)Nc1ccccc12	Active	Active
COc1ccc(C(=O)[C@@H]2[C@@H](c3ccc(O)c(O)c3)CN(C)[C@@]23C(=O)Nc2ccccc23)cc1OC	Active	Active
CN1C[C@H](c2ccc(O)c(O)c2)[C@@H](C(=O)c2cccc(F)c2)[C@]12C(=O)Nc1ccccc12	Active	Active
CN1C[C@H](c2ccc(O)c(O)c2)[C@@H](C(=O)c2ccccc2C(F)(F)F)[C@]12C(=O)Nc1ccccc12	inactive	inactive
CN1C[C@H](c2ccc(O)c(O)c2)[C@@H](C(=O)c2cccc(C(F)(F)F)c2)[C@]12C(=O)Nc1ccccc12	inactive	inactive
CN1C[C@H](c2ccc(O)c(O)c2)[C@@H](C(=O)c2ccc([N+](=O)[O-])cc2)[C@]12C(=O)Nc1ccccc12	inactive	inactive
CN1C[C@H](c2ccc(O)c(O)c2)[C@@H](C(=O)c2cc(C(F)(F)F)cc(C(F)(F)F)c2)[C@]12C(=O)Nc1ccccc12	inactive	inactive
CN1C[C@H](c2ccc(O)c(O)c2)[C@@H](C(=O)c2ccc(S(C)(=O)=O)cc2)[C@]12C(=O)Nc1ccccc12	inactive	inactive
CCCc1ccc(C(=O)[C@@H]2[C@@H](c3ccc(O)c(O)c3)CN(C)[C@@]23C(=O)Nc2ccccc23)cc1	Active	Active
